Data: patent US20120077843A1, “MALIGNANT PRECURSOR CELLS FROM DUCTAL CARCINOMA IN SITU LESIONS” (George Mason Intellectual Properties, Inc., priority 2009, published 2012)
Like-named read-outs stand apart in the source and are kept apart here.

Legend:
human DCIS spheroids = conditions: for spheroid and 3-D structure formation (in words): DCIS organoid cultures, untreated up to 113 spheroids per duct organoid
Method: Tissue collection. […] Gross tissue pathology at the time of procurement was assessed by a board certified pathologist. Tissue containing DCIS lesions was excised for further macrodissection and rinsed in sterile phosphate buffered saline to remove sentinel lymph node dye. Using sterile technique, ductal tissue was dissected from surrounding breast adipose/fibrous tissue. The ductal tissue was rinsed in serum free DMEM/F 12 medium (Invitrogen, Carlsbad, Calif., USA) supplemented with human recombinant EGF (10 ng/mL; Cell Signaling Technology, Danvers, Mass., USA or Millipore, Billerica, Mass., USA), insulin (10 μg/mL; Roche, Indianapolis, Ind., USA), streptomycin sulfate (100 μg/mL; Sigma, St. Louis, Mo., USA) and gentamicin sulfate (20 μg/mL; Sigma) prior to distribution in culture flasks (MidSci, St. Louis, Mo., USA). Ductal tissue was allowed to attach to the culture surface and observed daily for cellular outgrowths. Non-adherent organoids were removed from the culture flask.
(§1) Organoid ex vivo culture. Dissected breast ductal tissue was grown in 115 cm^2 TPP reclosable flasks (MidSci) or 10 cm^2 culture tubes (MidSci) in serum free DMEM/F12 medium supplemented with human recombinant EGF (10 ng/mL), insulin (10 μg/mL), streptomycin sulfate (100 μg/mL) and gentamicin sulfate (20 μg/mL), with or without 0.36% (v/v) murine Engelbreth-Holm-Swarm (EHS) derived, growth factor reduced, basement membrane extract (Trevigen, Gaithersburg, Md., USA) at 37° C. in a humidified 5.0% CO2 atmosphere. Medium was replaced three times per week. Cultures were maintained continuously for up to one year. Periodically, organoids were removed, under microscopic visualization, for propagation into new culture flasks or phenotypic and molecular analysis.
(§2) Pharmacological inhibition of autophagy. […] CO-containing medium was replaced three times per week for a period of 6 months.
(§3) Statistics. The Student T-test, two tailed with Welch's correction, was used to calculate the p-value, and to determine the statistical difference of epithelial outgrowth area before and after CQ treatment. P values <0.05 were considered significant. Standard deviation (SO) or standard error of the mean (SEM) was calculated for group comparisons. Wilcoxon rank sum was used to determine the differences between CQ treated and untreated groups for the reverse phase protein arrays. A p=0.1 was considered different for small sample sizes.

[1] = tested on: DCIS organoid culture spheroids; assay: Autophagosome lysosome imaging with LysoTracker Red; assay type: cell-based, human; conditions: chloroquine phosphate 50 μM for 2 weeks
[2] = tested on: DCIS organoid cell cultures; assay: Histomorphology (H&E of FFPE sections) of chloroquine treated DCIS organoids; assay type: cell-based, human; conditions: for histology of intraductal epithelial cells / remaining adherent cells: chloroquine phosphate 50 μM, FIG. 14D
Method: as §2
Immunohistochemistry. Formalin fixed murine tissue or DCIS organoids were processed and paraffin embedded by commercial laboratories (AML Laboratories, Inc, Rosedale, Md. or Bi-Biomics, Nampa, Id.). Formalin fixed paraffin embedded (FFPE) tissue sections (5 μm or 1 μm thickness) mounted on positively charged glass slides were baked at 56° C. for 20 min., deparaffinized in xylene and rehydrated in a series of graded alcohols (100%, 95%, and 70%) with a final rinse in wash buffer (Dako, Carpinteria, Calif., USA). Antigen retrieval, when necessary, was performed with proteinase K or heat induced epitope retrieval. Immunostaining was performed on a Dako Autostainer with an Envision+HRP staining kit (Dako) per manufacturer's instructions. Stained tissue sections were counterstained with Hematoxylin (Dako), rinsed in distilled water and developed in Scott's Tap Water Substitute solution. Cover slips were applied using aqueous mounting medium (Faramount; Dako). Images were captured with an Olympus BX51 microscope using 4×, 10×, 20×, or 100× objectives.

[3] = tested on: DCIS malignant precursor cells; assay: Ex vivo invasion of autologous breast stroma in organoid culture; assay type: cell-based, human; conditions: chloroquine phosphate treated organ culture
Method: as §1, §2

[4] = tested on: autophagy associated signal pathway proteins in DCIS spheroids; assay: Cell signaling pathway mapping by reverse phase protein microarray (RPMA) of spheroids pre and post chloroquine; assay type: cell-based, human; conditions: for autophagy associated signal pathway proteins (Atg5, AKT, ERK, mTOR, IRS-1, p38 etc.) by RPMA: spheroids pre and post chloroquine phosphate 50 μM for 4 days, n=3
Method: as §2, §3

[5] = listed as chloroquine phosphate

## CCN(CC)CCCC(C)Nc1ccnc2cc(Cl)ccc12 (stereo not shown) [chloroquine, N′-(7-chloroquinolin-4-yl)-N,N-diethyl-pentane-1,4-diamine]
Human DCIS spheroids
  spheroid and 3-D structure formation (in words): zero for the majority of explants
Human DCIS spheroids; listed as CQ
  spheroid and 3-D structure formation (in words): virtually abolished
Human DCIS spheroids; [5]
  spheroid and 3-D structure formation (in words): completely suppressed
Human DCIS spheroids; case 09-148, 14 explants
  explants without any spheroids following chloroquine treatment: 12 out of 14
Human DCIS spheroids; case 09-301, n=3, prior to treatment 20.5±7.8
  spheroids observed after treatment: no spheroids observed
Human DCIS spheroids; cultured DCIS cells, combination with anti-estrogen compound (tamoxifen)
  inhibition of spheroid outgrowth, CQ in combination with tamoxifen: pronounced effect
[1]
  spheroid integrity and LysoTracker Red distribution: Dissociation of the spheroid, and diffuse accumulation of LysoTracker Red
[2]; 2 days post chloroquine treatment, 50 μM
  histology of invading DCIS cells within the organoid: Degeneration of the invading DCIS cells
[2]
  histology of intraductal epithelial cells / remaining adherent cells: Cellular swelling and apparent apoptotic death
[2]; listed as CQ
  histology of intraductal epithelial cells / remaining adherent cells: lysosomal engorgement
[2]; cultured in the presence of chloroquine for 6 months, 50 μM
  histology of DCIS organoid cultured with chloroquine long term: complete absence of cellular outgrowths
[3]
  ex vivo invasion of autologous stroma: suppressed ex vivo invasion
[4]; as early as 48 hours post treatment
  apoptosis (elevation of cleaved PARP Asp214): induced apoptosis
[4]; listed as CQ
  autophagy associated signal pathway proteins (Atg5, AKT, ERK, mTOR, IRS-1, p38 etc.) by RPMA: suppressed
[4]; listed as Chloroquine
  autophagy associated signal pathway proteins (Atg5, AKT, ERK, mTOR, IRS-1, p38 etc.) by RPMA: markedly inhibited
[4]; [5]
  autophagy associated signal pathway proteins (Atg5, AKT, ERK, mTOR, IRS-1, p38 etc.) by RPMA: suppressed autophagy associated proteins
